Ki data for 44 molecules are collected here from patent US7964624B1, “Inhibitors of serine proteases” (priority 2005, dated 2011).

The first assay deals with T1, full-length hepatitis C viral protein NS3•4A (Hepatitis C virus genotype 1a, UniProt P27958).
T1 construct: hexa-histidine (N); made in house; host or cells: Sf9 insect cells (baculovirus, pVL1392)
Briefly: biochemical. Set-up: species or system HCV sub-type strain 1a. The note with it: Enzyme Assay 2 (HCV NS3 Peptide Cleavage Assay) activity, apparent Ki class.
Regarding `CNC(=O)C(=O)[C@H](CC1CC1)NC(=O)[C@@H]1C[C@]2(CC(c3cccc(Cl)c3)=NO2)CN1C(=O)[C@@H](NC(=O)[C@H]1C[C@@H]1C(C)C)C(C)(C)C` [Compound 755], the Ki was < 100 nM. Turning to `CNC(=O)C(=O)[C@H](CC1CCC1)NC(=O)[C@@H]1C[C@]2(CC(c3cccc(Cl)c3)=NO2)CN1C(=O)[C@@H](NC(=O)CC1CCCCC1)C(C)(C)C` [Compound 741], the Ki was < 100 nM. Turning to `CCC[C@H](NC(=O)[C@@H]1C[C@]2(CC(c3ccc(F)c(Cl)c3)=NO2)CN1C(=O)[C@@H](NC(=O)CC(C)(C)C)C(C)(C)C)C(=O)C(=O)NC1CC1` [Compound 613], the Ki is < 100 nM.

With `CCC[C@H](NC(=O)[C@@H]1C[C@]2(CC(c3cccc(NC(=O)C(Cl)Cl)c3)=NO2)CN1C(=O)[C@@H](NC(=O)CC1CCCCC1)C(C)(C)C)C(=O)C(=O)NC1CC1` [Compound 598], the Ki is 100 to 500 nM.

`CCC[C@H](NC(=O)[C@@H]1C[C@]2(CC(c3cc(Cl)c(OC)cc3OC)=NO2)CN1C(=O)[C@@H](NC(=O)CC1(C)CCOCC1)C(C)(C)C)C(=O)C(=O)NC1CC1` [Compound 286]: the Ki was < 100 nM.

Take `CNC(=O)C(=O)[C@H](CC1CC1)NC(=O)[C@@H]1C[C@@]2(CC(c3nc(-c4ccccc4)no3)=NO2)CN1C(=O)[C@@H](NC(=O)OC1CCCC1)C(C)(C)C` [Compound 694]: the Ki was 100 to 500 nM. As to `CCC[C@H](NC(=O)[C@@H]1C[C@]2(CC(c3cc(Cl)c(OC)cc3C)=NO2)CN1C(=O)[C@@H](NC(=O)CC(C)(C)C)C(C)(C)C)C(=O)C(=O)NC` [Compound 607], the Ki lay in the range of 100 to 500 nM.

With `CCC[C@H](NC(=O)[C@@H]1C[C@]2(CC(c3ccc(F)c(Cl)c3)=NO2)CN1C(=O)[C@@H](NC(=O)OC(C)(C)C)C(C)(C)C)C(=O)C(N)=O` [Compound 627], the Ki was < 100 nM. Turning to `CCC[C@H](NC(=O)[C@@H]1C[C@]2(CC(c3cc(Cl)cc4c3OCOC4)=NO2)CN1C(=O)[C@@H](NC(=O)CC1CCCCC1)C(C)(C)C)C(=O)C(=O)NC1CC1` [Compound 676], the Ki was < 100 nM. On to `CCC[C@H](NC(=O)[C@@H]1C[C@]2(CC(c3cc(Cl)ccc3OC)=NO2)CN1C(=O)[C@@H](NC(=O)CC1CCCCCC1)C(C)(C)C)C(=O)C(N)=O` [Compound 637], for which the Ki is < 100 nM.

Turning to `CCC[C@H](NC(=O)[C@@H]1C[C@]2(CC(c3ccc(F)c(Cl)c3)=NO2)CN1C(=O)[C@@H](NC(=O)CC1CCCCC1)C(C)(C)C)C(=O)C(=O)NC` [Compound 609], the Ki is < 100 nM. On the same count and under the same terms, the same measure for `CNC(=O)C(=O)[C@H](CC1CC1)NC(=O)[C@@H]1C[C@]2(CC(c3cc(Cl)c4c(c3)OCCO4)=NO2)CN1C(=O)[C@@H](NC(=O)CC1CCCCC1)C(C)(C)C` [Compound 675]: < 100 nM; for `CCC[C@H](NC(=O)[C@@H]1C[C@]2(CC(c3cc(Cl)nc4ccccc34)=NO2)CN1C(=O)[C@@H](NC(=O)CC1CCCCC1)C(C)(C)C)C(=O)C(=O)NC1CC1` [Compound 638]: < 100 nM; for `CCC[C@H](NC(=O)[C@@H]1C[C@]2(CC(c3cc(C)c(OCC)c(C)c3)=NO2)CN1C(=O)[C@@H](NC(=O)CC1CCCCC1)C(C)(C)C)C(=O)C(=O)NC1CC1` [Compound 513]: < 100 nM. Still for that read-out and setting: next, `CCC[C@H](NC(=O)[C@@H]1C[C@]2(CC(c3ccc(N(C)C)c(Cl)c3)=NO2)CN1C(=O)[C@@H](NC(=O)CC1CCCCC1)C(C)(C)C)C(=O)C(=O)NC1CC1` [Compound 597]: 100 to 500 nM; `CCC[C@H](NC(=O)[C@@H]1C[C@@]2(CC(c3cccc4cccnc34)=NO2)CN1C(=O)[C@@H](NC(=O)CC1CCCCC1)C(C)(C)C)C(=O)C(=O)NC1CC1` [Compound 31]: 100 to 500 nM; `CCC[C@H](NC(=O)[C@@H]1C[C@]2(CC(c3cccc(Cl)c3)=NO2)CN1C(=O)[C@@H](NC(=O)OC1CCCC1)C(C)(C)C)C(=O)C(=O)NC1CC1` [Compound 369]: < 100 nM. Still for that read-out and setting: the same measure for `CCC[C@H](NC(=O)[C@@H]1C[C@]2(CC(c3cc(C)c(OC)c(C)c3)=NO2)CN1C(=O)[C@@H](NC(=O)CC1CCCCCC1)C(C)(C)C)C(=O)C(N)=O` [Compound 728]: < 100 nM; for `CCC[C@H](NC(=O)[C@@H]1C[C@]2(CC(c3cccc(Cl)c3F)=NO2)CN1C(=O)[C@@H](NC(=O)CC1CCCCC1)C(C)(C)C)C(=O)C(=O)NC1CC1` [Compound 169]: 100 to 500 nM; for `CCC[C@H](NC(=O)[C@@H]1C[C@]2(CC(c3ccc(F)c(Cl)c3)=NO2)CN1C(=O)[C@@H](NC(=O)OC(C)(C)C)C(C)(C)C)C(=O)C(=O)NC1CC1` [Compound 629]: < 100 nM. Consider `CC(C)(C)[C@H](NC(=O)[C@@H]1C[C@H]1c1ccccc1)C(=O)N1C[C@@]2(CC(c3cccc(Cl)c3)=NO2)C[C@H]1C(=O)N[C@@H](CC1CC1)C(=O)C(N)=O` [Compound 485], for which the Ki is < 100 nM. Same read-out and setting: next, `CCC[C@H](NC(=O)[C@@H]1C[C@]2(CC(c3cc(C)c(OCC4CC4)c(C)c3)=NO2)CN1C(=O)[C@@H](NC(=O)CC1CCCCC1)C(C)(C)C)C(=O)C(=O)NC1CC1` [Compound 406]: < 100 nM; `CCC[C@H](NC(=O)[C@@H]1C[C@]2(CC(c3cc(C)c(OC)c(C)c3)=NO2)CN1C(=O)[C@@H](NC(=O)OC1CCCC1)C(C)(C)C)C(=O)C(N)=O` [Compound 760]: < 100 nM. Same read-out and setting: next, `CCC[C@H](NC(=O)[C@@H]1C[C@]2(CC(c3cc(Cl)ccc3OC)=NO2)CN1C(=O)[C@@H](NC(=O)CC1CCCCC1)C(C)(C)C)C(=O)C(N)=O` [Compound 636]: < 100 nM. The same measure, in the same setting: the same measure for `CCC[C@H](NC(=O)[C@@H]1C[C@]2(CC(c3cc(Cl)c(OC)cc3OC)=NO2)CN1C(=O)[C@@H](NC(=O)CC1(C)CCOCC1)C(C)(C)C)C(=O)C(=O)N1CCC1` [Compound 356]: < 100 nM. Take `CCC[C@H](NC(=O)[C@@H]1C[C@]2(CC(c3cc(Cl)ccn3)=NO2)CN1C(=O)[C@@H](NC(=O)OC1CCCC1)C(C)(C)C)C(=O)C(=O)NC1CC1` [Compound 667]: the Ki is < 100 nM. Still for that read-out and setting: the same measure for `CCC[C@H](NC(=O)[C@@H]1C[C@]2(CC(c3cc(Cl)c(OC)cc3C)=NO2)CN1C(=O)[C@@H](NC(=O)CC(C)(C)C)C(C)(C)C)C(=O)C(N)=O` [Compound 624]: 100 to 500 nM; for `CNC(=O)C(=O)[C@H](CC1CC1)NC(=O)[C@@H]1C[C@]2(CC(c3cccc(Cl)c3)=NO2)CN1C(=O)[C@@H](NC(=O)[C@@H]1C[C@H]1c1ccccc1)C(C)(C)C` [Compound 696]: < 100 nM. With `CCC[C@H](NC(=O)[C@@H]1C[C@]2(CC(c3cc(Cl)cc4c3OC(C)(C)C4)=NO2)CN1C(=O)[C@@H](NC(=O)CC1CCCCC1)C(C)(C)C)C(=O)C(=O)NC1CC1` [Compound 170], the Ki is < 100 nM. As to `COc1cc(OC)c(C2=NO[C@]3(C2)C[C@@H](C(=O)N[C@@H](CC2CC2)C(=O)C(N)=O)N(C(=O)[C@@H](NC(=O)CC2CCCCC2)C(C)(C)C)C3)cc1Cl` [Compound 562], the Ki is < 100 nM.

The assay is the same for the next values; noted with them: Enzyme Assay 2, HCV NS3 Peptide Cleavage Assay, apparent Ki.
On to `CCOc1c(C)cc(C2=NO[C@]3(C2)C[C@@H](C(=O)N[C@@H](CC2CC2)C(=O)C(=O)NC)N(C(=O)[C@@H](NC(=O)[C@@H]2C[C@H]2c2ccccc2OC)C(C)(C)C)C3)cc1C` [Compound 985], for which the Ki is < 100 nM.

As to `CCC[C@H](NC(=O)[C@@H]1C[C@]2(CC(c3cc(C)c(OCC)c(C)c3)=NO2)CN1C(=O)[C@@H](NC(=O)C1C[C@H]1C(C)C)C(C)(C)C)C(=O)C(=O)NC` (some centres unmarked) [Compound 992], the Ki is < 100 nM. Still for that read-out and setting: the same measure for `CCOc1cc(OC)c(C2=NO[C@]3(C2)C[C@@H](C(=O)N[C@@H](CC2CC2)C(=O)C(=O)NC)N(C(=O)[C@@H](NC(=O)OC2CCCC2)C(C)(C)C)C3)cc1Cl` [Compound 947]: < 100 nM; for `CCC[C@H](NC(=O)[C@@H]1C[C@]2(CC(c3cccc(Cl)c3)=NO2)CN1C(=O)[C@@H](NC(=O)[C@@H]1C[C@H]1C(C)C)C(C)(C)C)C(=O)C(=O)NC1CC1` [Compound 897]: < 100 nM. Consider `CCC[C@H](NC(=O)[C@@H]1C[C@]2(CC(c3cc(C)c(OCC)c(C)c3)=NO2)CN1C(=O)[C@@H](NC(=O)OC1CCCC1)C(C)(C)C)C(=O)C(=O)NC1CC1` [Compound 860], for which the Ki was < 100 nM. Still for that read-out and setting: the same measure for `CNC(=O)C(=O)[C@H](CC1CC1)NC(=O)[C@@H]1C[C@]2(CC(c3cccc(Cl)c3)=NO2)CN1C(=O)[C@@H](NC(=O)[C@@H]1C[C@H]1c1ccccn1)C(C)(C)C` [Compound 869]: < 100 nM; for `CCOc1c(C)cc(C2=NO[C@]3(C2)C[C@@H](C(=O)N[C@@H](CC2CC2)C(=O)C(N)=O)N(C(=O)[C@@H](NC(=O)OC(C)(C)C)C(C)(C)C)C3)cc1C` [Compound 974]: < 100 nM. On the same count and under the same terms, the same measure for `CCC[C@H](NC(=O)[C@@H]1C[C@]2(CC(c3cc(C)c(OCC)c(C)c3)=NO2)CN1C(=O)[C@@H](NC(=O)[C@H]1C[C@@H]1c1ccccn1)C(C)(C)C)C(=O)C(=O)NC1CC1` [Compound 980]: 100 to 500 nM.

Take `CNC(=O)C(=O)[C@H](CC1CC1)NC(=O)[C@@H]1C[C@]2(CC(N3Cc4ccccc4C3)=NO2)CN1C(=O)[C@@H](NC(=O)OC1CCCC1)C(C)(C)C` [Compound 965]: the Ki lay in the range of 100 to 500 nM. Still for that read-out and setting: next, `CNC(=O)C(=O)[C@H](CC1CC1)NC(=O)[C@@H]1C[C@]2(CC(c3cccc(Cl)c3)=NO2)CN1C(=O)[C@@H](NC(=O)[C@@H]1CC12CCOCC2)C(C)(C)C` [Compound 927]: < 100 nM; `CNC(=O)C(=O)[C@H](CC1CC1)NC(=O)[C@@H]1C[C@]2(CC(c3cc(Cl)ccc3OC)=NO2)CN1C(=O)[C@@H](NC(=O)[C@H]1C[C@@H]1c1ccccc1)C(C)(C)C` [Compound 903]: < 100 nM; `CCC[C@H](NC(=O)[C@@H]1C[C@]2(CC(c3cccc(Cl)c3)=NO2)CN1C(=O)[C@@H](NC(=O)[C@H]1CC1c1ccccc1)C(C)(C)OC)C(=O)C(=O)NC1CC1` (some centres unmarked) [Compound 960]: < 100 nM. The same measure, in the same setting: next, `CCC[C@H](NC(=O)[C@@H]1C[C@]2(CC(c3cccc(Cl)c3)=NO2)CN1C(=O)[C@@H](NC(=O)OCC1(C)COC1)C(C)(C)C)C(=O)C(=O)NC1CC1` [Compound 957]: 100 to 500 nM.

Still in this assay, the particulars now being: read-out: Enzyme Assay 2 (HCV NS3 Peptide Cleavage Assay) activity; apparent Ki class.
For `CNC(=O)C(=O)[C@H](CC1CC1)NC(=O)[C@@H]1C[C@]2(CC(c3cccc(Cl)c3)=NO2)CN1C(=O)[C@@H](NC(=O)CC1CC2CCC1C2)C(C)(C)C` (some centres unmarked) [Compound 777], the Ki was < 100 nM.
